Measured values as given in patent US7410960B2, “Metal complexes and therapeutic uses thereof” (The University of Western Sydney, priority 2001, dated 2008).
Values joined by “and” are separate entries in the source; they are usually repeats but may differ in a detail not shown here. Equal values may be shown once. Read-outs that look alike come from different tables or passages of the source.

Key:
5637 (bladder) = test: Growth inhibition IC50, 5637 (bladder) cell line; type: cell-based; details: value (standard deviation)
Description: (§1) When we compare the effect of changing the diamine from the non-chiral 1,2-diaminoethane (en) to the chiral ligands and 2S,3S-diaminobutane (2S,3S-bn) and 2R,3R-diaminobutane (2R,3R-bn) then the concentration inhibiting the exponential growth of cells to 50% is further reduction from 27.0 to 1.11 and 0.32 μM respectively.

A-427 (lung) = test: Growth inhibition IC50, A-427 (lung) cell line; type: cell-based; details: value (standard deviation)
Description: as §1

LCLC-103H (lung) = test: Growth inhibition IC50, LCLC-103H (lung) cell line; type: cell-based; details: value (standard deviation)
Description: as §1

KYSE 520 (esophagus) = test: Growth inhibition IC50, KYSE 520 (esophagus) cell line; type: cell-based; details: value (standard deviation)
Description: as §1

[1] = system: L1210 mouse leukaemia cells; test: CC growth inhibition assay, L1210; type: cell-based; details: Test CC, 40 μM highest dose tested
Description: (§2) The data presented in Table3 is the results collected from the growth inhibition studies of selected compounds with the following cell lines: L1210 (mouse leukaemia cells), 2008 (human ovarian carcinoma cells), L1210/DDP and C13*5 (acquired cisplatin resistance) and SKOV-3 (intrinsic cisplatin resistance).

[2] = system: L1210/DDP cisplatin-resistant cells; test: CC growth inhibition assay, L1210/DDP; type: cell-based, mouse; details: Test CC, 40 μM highest dose tested
Description: as §2

[3] = system: C13*5 cisplatin-resistant cells; test: Sulphorhodamine B (SRB) growth inhibition assay, C13; type: cell-based, human; details: Test SRB, acquired cisplatin resistance
Description: as §2

[4] = system: SKOV-3 cells (intrinsically resistant to cisplatin); test: Sulphorhodamine B (SRB) growth inhibition assay, SKOV-3; type: cell-based; details: Test SRB, intrinsic cisplatin resistance
Description: as §2

[5] = system: 2008 human ovarian carcinoma cells; test: Sulphorhodamine B (SRB) growth inhibition assay, 2008; type: cell-based; details: Test SRB
Description: as §2

[6] = first run, read-out: IC50 5637 (bladder)
[7] = repeat run, read-out: IC50 5637 (bladder) Repeat
[8] = listed as [Pt(R,R-bn)(phen)]Cl2
[9] = listed as [Pt(S,S-bn)(phen)]Cl2
[10] = listed as [Pt(R,R-dach)(phen)](ClO4)2
[11] = listed as [Pt(S,S-dach)(phen)](ClO4)2

Row | Molecule | IC50 (5637 (bladder); [6]) | IC50 (5637 (bladder); [7]) | IC50 (A-427 (lung)) | IC50 (LCLC-103H (lung)) | IC50 (KYSE 520 (esophagus)) | other results
1 | N.N.[Cl][Pt][Cl] [CDDP, cis-diamminedichloroplatinum (II), reference compound] | 0.88 µM | 0.43 µM | 4.46 µM | 1.44 µM | 6.63 µM | 
2 | CC(N)C(C)N.[Cl-].[Cl-].[Pt+2].c1cnc2c(c1)ccc1cccnc12 [[Pt(2R,3R-bn)(phen)]Cl2] [(2R,3R-butanediamine)(1,10-phenanthroline)platinum(II) cation] | 0.32 µM | 0.43 µM | 0.54 µM | 0.78 µM | 0.67 µM | IC50 [1, 8]: 1.5 µM; IC50 [2, 8]: 2.5 µM and 1.9 µM; IC50 [3, 8]: 5.2 µM and 9 µM and 7.4 µM
3 | CC(N)C(C)N.[Cl-].[Cl-].[Pt+2].c1cnc2c(c1)ccc1cccnc12 [[Pt(2S,3S-bn)(phen)]Cl2] [(2S,3S-butanediamine)(1,10-phenanthroline)platinum(II) cation] | 1.11 µM | 0.98 µM | 1.35 µM | 2.39 µM | 1.87 µM | IC50 [1, 9]: 3.8 µM and 3 µM; IC50 [2, 9]: 5.3 µM and 8 µM; IC50 [3, 9]: 26 µM and 22 µM and 28 µM; IC50 [4, 9]: 9.8 µM and 9.2 µM and 12 µM; IC50 [5, 9]: 7.2 µM and 11 µM
4 | NCCN.[Cl-].[Cl-].[Pt+2].c1cnc2c(c1)c1nccnc1c1cccnc12 [[Pt(en)(dpq)]Cl2] | 16.7 µM |  | 16.4 µM | 23.6 µM | 19.4 µM | 
5 | [Cl-].[Cl-].c1cc2ccc3ccc[n+]4c3c2[n+](c1)[Pt-2]41[NH2+]CC[NH2+]1 [[Pt(en)(phen)]Cl2, reference compound] | 27 µM | 23.7 µM | 24.1 µM | 41.2 µM | 49.1 µM | 
6 | CC(N)C(C)N.[Cl-].[Cl-].[Pt+2].c1cnc2c(c1)ccc1cccnc12 [[Pt(meso-2,3-bn)(phen)]Cl2] [(2S,3R-butanediamine)(1,10-phenanthroline)platinum(II) cation] | 0.61 µM | 0.72 µM | 0.92 µM | 1.07 µM | 1.09 µM | 
7 | N[C@@H]1CCCC[C@H]1N.[O-][Cl+3]([O-])([O-])[O-].[O-][Cl+3]([O-])([O-])[O-].[Pt+2].c1cnc2c(c1)ccc1cccnc12 [[Pt(phen)(R,R-dach)](ClO4)2, (1R,2R-cyclohexanediamine)(1,10-phenanthroline)platinum(II) cation] |  | 0.54 µM |  |  |  | IC50 [1, 10]: 1.4 µM and 1.6 µM; IC50 [2, 10]: 4.3 µM and 4.5 µM; IC50 [3, 10]: 5.1 µM and 9.2 µM; IC50 [4, 10]: 3.3 µM and 3.6 µM; IC50 [5, 10]: 3.3 µM and 3.1 µM
8 | N[C@H]1CCCC[C@@H]1N.[O-][Cl+3]([O-])([O-])[O-].[O-][Cl+3]([O-])([O-])[O-].[Pt+2].c1cnc2c(c1)ccc1cccnc12 [[Pt(phen)(S,S-dach)](ClO4)2, (1S,2S-cyclohexanediamine)(1,10-phenanthroline)platinum(II) cation] |  | 0.15 µM |  |  |  | IC50 [1]: 0.13 µM; IC50 [2]: 0.28 ± 0.09 µM; IC50 [3, 11]: 0.56 µM and 0.88 µM; IC50 [4, 11]: 0.31 µM and 0.42 µM; IC50 [5, 11]: 0.37 µM and 0.45 µM
9 | (N,N′-dimethyl-1R,2R-cyclohexanediamine)(1,10-phenanthroline)platinum(II) cation [[Pt(phen)(Me2-R,R-dach)](ClO4)2] |  | 23.6 µM |  |  |  | 
10 | (N,N′-dimethyl-1S,2S-cyclohexanediamine)(1,10-phenanthroline)platinum(II) cation [[Ptphen)(Me2-S,S-dach](ClO4)2] |  | 55.6 µM |  |  |  | IC50 ([1]; listed as [Pt(Me2—S,S-dach)(phen)](ClO4)2): 12 µM
